Reference: US8119661B2, “Piperidine derivatives and their use as muscarinic receptor modulators” (AstraZeneca AB, priority 2007, dated 2012)

Assays:
[1] = target: T1, hM1 (human Muscarinic receptor subtype 1) (Homo sapiens, UniProt P11229); test: Human M1 calcium mobilization FLIPR assay; type: cell-based; conditions: CHO cells expressing hM1, intracellular Ca2+ release
T1 construct: expressed in transfected cells; host or cells: CHO cells (Chinese hamster ovary cells, ATCC)
T1 sequence (P11229 1-460): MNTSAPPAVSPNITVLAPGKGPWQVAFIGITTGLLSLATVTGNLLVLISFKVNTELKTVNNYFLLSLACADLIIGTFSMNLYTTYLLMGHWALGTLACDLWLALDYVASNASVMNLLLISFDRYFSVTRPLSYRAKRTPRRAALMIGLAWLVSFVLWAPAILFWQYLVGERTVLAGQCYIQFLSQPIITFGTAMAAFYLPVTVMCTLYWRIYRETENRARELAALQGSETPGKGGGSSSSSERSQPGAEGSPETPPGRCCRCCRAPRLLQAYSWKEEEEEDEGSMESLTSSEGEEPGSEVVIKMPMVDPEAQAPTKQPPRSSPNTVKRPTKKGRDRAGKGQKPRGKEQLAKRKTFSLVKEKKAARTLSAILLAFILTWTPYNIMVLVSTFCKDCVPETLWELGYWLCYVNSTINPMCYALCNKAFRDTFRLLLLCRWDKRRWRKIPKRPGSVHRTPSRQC
Protocol: The compound activity in the present invention (EC50 or IC50) is measured using a 384 plate-based imaging assay that monitors drug induced intracellular Ca^2+ release in whole cells. Activation of hM1 (human Muscarinic receptor subtype 1, gene bank access NM_000738), rM1 (rat Muscarinic receptor subtype 1, gene bank access NM_080773), hM3 (human Muscarinic receptor subtype 3, gene bank access NM_000740NM_000740) and hM5 (human Muscarinic receptor subtype 5, gene bank access NM_0121258), receptors expressed in CHO cells (Chinese hamster ovary cells, ATCC) is quantified in a Molecular Devices FLIPR II™ instrument as an increase in fluorescent signal. Inhibition of hM3 and hM5 by compounds is determined by the decrease in fluorescent signal in response to 2 nM acetylcholine activation.
Prior to experiment, the cell culture medium is removed from the plates by inversion. […] Plates are incubated at 37° C. for 60 minutes prior to start the experiment. The incubation is terminated by washing the cells four times in assay buffer, leaving a residual 25 μl buffer per well. Cell plates are then transferred to the FLIPR, ready for compound additions.
The day of experiment, acetylcholine and compounds are diluted in assay buffer in three-fold concentration range (10 points serial dilution) for addition by FLIPR instrument. For all calcium assays, a baseline reading is taken for 10 seconds followed by the addition of 12.5 μl of compounds, resulting in a total well volume of 37.5 μl. Data is collected every second for 60 pictures and then every 6 seconds for 20 pictures prior to the addition of agonist. For hM3 and hM5, before agonist addition, a second baseline reading is taken for 10 seconds followed by the addition of 12.5 μl of agonist or buffer, producing a final volume of 50 μl. After agonist stimulation, the FLIPR continues to collect data every second for 60 pictures and then every 6 seconds for 20 pictures. The fluorescence emission is read using filter 1 (emission 510-570 nm) by the FLIPR on board CCD camera.
Calcium mobilization output data are calculated as the maximal relative fluorescence unit (RFU) minus the minimal value for both compound and agonist reading frame (except for hM1 and rM1 using only the maximal RFU). Data are analyzed using sigmoidal fits of a non-linear curve-fitting program (XLfit version 4.2.2 Excel add-in version 4.2.2 build 18 math 1Q version 2.1.2 build 18). All pEC50 and pIC50 values are reported as arithmetic means±standard error of mean of ‘n’ independent experiments.

[2] = system: SNL rats (heat hyperalgesia); test: Rat SNL heat hyperalgesia assay; type: in vivo; conditions: sc, male Sprague Dawley SNL rats, paw withdrawal latency, morphine s.c. 30 min before testing, example 2 per os 60 min before testing, combination ratio example 2:morphine 1:1.56
Protocol: Rats undergo spinal nerve ligation surgery as described in Kim and Chung (1992) (reference 1). Briefly, rats are anesthetized with isoflurane, the left L5 and L6 are isolated and tightly ligated with 4-0 silk thread. The wound is closed by suturing and applying tissue adhesive. Compound testing is performed at day 9 to day 36 post-surgery.
For behavioral testing, the animals are acclimatized to the test room environment for a minimum of 30 min. In order to assess the degree of hyperalgesia, the animals are placed on a glass surface (maintained at 30° C.), and a heat-source is focused onto the plantar surface of the left paw. The time from the initiation of the heat until the animal withdraws the paw is recorded. Each animal is tested twice (with an interval of 10 min between the two tests). A decrease in Paw Withdrawal Latency (PWL, average of the two tests) relative to naïve animals indicates a hyperalgesic state. The rats with a PWL of at least 2 seconds less than average PWL of Naïve group are selected for compound testing. […]
In order to assess the degree of heat hyperalgesia, the rats were individually placed in Plexiglas boxes on the glass surface (maintained at 30° C.) of a paw thermal stimulator system (Model 390, series 8, IITC Life Science, Woodland Hills, USA) and allowed to acclimate for 30 min. […] Paw withdrawal latencies (PWLs) were calculated as the mean of the two values.

**Q.** How did the EC50 [1] turn out when `CC#CCOC(=O)N1CCC(C)(N2CCC(N3C(=O)N[C@H]4CCCC[C@@H]43)CC2)C1` (single isomer, unassigned) [Example 20] was run?
**A.** Its EC50 is 257 nM.

**Q.** For `CN1CC[C@]23c4c5ccc(O)c4O[C@H]2[C@@H](O)C=C[C@H]3[C@H]1C5` [Morphine, reference compound], which ED50 [2] is on record?
**A.** Its ED50 is 3.8 µmol/kg.
